These results are taken from US20250082614A1, “METHODS OF USING RAD51 INHIBITORS FOR TREATMENT OF PANCREATIC CANCER” (Cyteir Therapeutics, Inc., priority 2019, published 2025).

Data set [1] is described as follows: Pharmacokinetic (PK) study, plasma by LC-MS. The conditions noted are these: po @ 80 mg/kg. It is filed as in vivo, rat. The protocol:
PK studies in mice were used to determine the fate of the compounds in a whole organism. Rats were treated with the compounds either orally of via IV at the indicated doses and followed for up to 24 hours. Plasma samples were taken at different time points and analyzed by LC-MS.

Data set [2] can be described thus: Human liver microsome stability. Type of data set: in vitro ADME. The conditions noted are these: human liver microsomes. The protocol:
The stability of the claimed compounds was determined in the presences of human liver microsomes. The compounds were incubated with the microsomes at 37° C. for 45 minutes. Samples were analyzed using LC-MS/MS. Data analysis included half-life, clearance rate, and the percentage of hepatic blood flow […] for each of the compounds in the different species.
On the technique in general: Liver microsomes are vesicles of endoplasmic reticulum, rich in cytochrome P450 enzymes.

Data set [3] has as its system ARPE19/HPV16 (HPV Immortalized RPE). Put plainly: Cell line screen, potency assay. Type of data set: cell-based. To be noted: ARPE-19, AICDA expression Negative. The protocol: Percent cell death and EC50 values were calculated by comparing the cell viability of the compound treated wells to the non-treated wells. Normalized RLU values were obtained by subtracting the media well values from each of the wells in the same column, and then dividing that value by the DMSO treated cells values. The percent kill was then calculated by subtracting the normalized RLU value from 1 and multiplying by 100. The average normalized percent kill value and standard error of the mean was then calculated. The kill values were then inputted into Prism with the corresponding standard errors. In Prism a non-linear regression line was plotted with the data points using a semi-log scale, and the EC50 value was calculated.
The activity of the claimed compounds was measured in a variety of cell lines with different expression levels of activation induced cytidine deaminase (AICDA). The potency assay was repeated in all of the listed cell lines and the EC50 values recorded.

For orientation: EC50 means the concentration giving half of the maximal effect. High values mean weaker potency, low ones greater potency. For the molecule `CC(C)OC(=O)Nc1ccc(-c2cnc([C@H]3CC[C@H](NC(=O)OC(C)C)CC3)s2)c(S(=O)(=O)NC(C)(C)C)c1` [Ex. 67A, trans-isopropyl N-[3-(tert-butylsulfamoyl)-4-[2-[4-(isopropoxycarbonylamino)cyclohexyl]thiazol-5-yl]phenyl]carbamate], the “F (%) @ 5 mg/kg” value was 86.5% in data set [1] (Rat Female) and 46.9% in data set [1] (Rat Male). Also, the “% QH (percentage of hepatic blood flow)” value in data set [2] is reported as under 20.3%. The molecule further registered an EC50 in data set [3] of over 10 µM.
